Measurements from US7402606B2, “Derivatives of 1-(oxoaminoacetyl) pentylcarbamate as cathepsin K inhibitors for the treatment of bone loss” (SmithKline Beecham Corporation, priority 2002, dated 2008).

What follows are compounds tested against T1, human cathepsin K (Homo sapiens, UniProt P43235) (assay: Cathepsin K inhibition assay, human recombinant enzyme, fluorogenic substrate Cbz-Phe-Arg-AMC). Conditions: Table 1, human cathepsin K; read-out: h Cat K IC50.
T1 construct: The proform of cathepsin K was converted to mature cathepsin K by brief exposure to pH 4; made in house; host or cells: baculovirus; Trichoplusia ni High Five cells (virus raised in Sf-9)
T1 sequence (P43235 115-329): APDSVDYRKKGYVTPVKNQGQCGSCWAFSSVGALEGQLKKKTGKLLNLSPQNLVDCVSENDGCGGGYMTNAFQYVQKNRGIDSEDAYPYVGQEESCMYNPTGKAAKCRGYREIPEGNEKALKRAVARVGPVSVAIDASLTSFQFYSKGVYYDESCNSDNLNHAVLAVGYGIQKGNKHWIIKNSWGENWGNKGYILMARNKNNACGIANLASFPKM
Type: biochemical
Method in brief: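 Recombinant human cathepsin K (baculovirus/insect-cell proform, activated at pH 4 with 5 mM L-cysteine) assayed with 10 μM Cbz-Phe-Arg-AMC, 10% DMSO, 30 °C.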

IC50, 10 to 100 nM:
CCCC[C@H](NC(=O)O[C@@H]1CN(C(=O)c2cnc3ccccc3c2)CC1(C)C)C(=O)C(=O)N[C@H](C)c1ccccc1 [Example 29, (3S)-4,4-Dimethyl-(3-quinolinylcarbonyl)pyrrolidinyl 1-(oxo{[(1R)-1-phenylethyl]amino}acetyl)pentylcarbamate]
CCCC[C@H](NC(=O)O[C@@H]1CN(C(=O)OCc2ccccc2)CC1(C)C)C(=O)C(=O)N[C@H](C)c1ccccc1 [Example 44, Benzyl (4S)-3,3-dimethyl-4-[({[(1S)-1-(oxo{[(1R)-1-phenylethyl]amino}acetyl)pentyl]amino}carbonyl)oxy]-1-pyrrolidinecarboxylate]
CCCC[C@H](NC(=O)O[C@@H]1CN(C(=O)NC(=O)c2ccccc2)CC1(C)C)C(=O)C(=O)N[C@H](C)c1ccccc1 [Example 75, (3S)-1-[(Benzoylamino)carbonyl]-4,4-dimethylpyrrolidinyl (1S)-1-(oxo{[(1R)-1-phenylethyl]amino}acetyl)pentylcarbamate]
CCCC[C@H](NC(=O)O[C@@H]1CN(C(=O)c2csc(-c3snnc3C)n2)CC1(C)C)C(=O)C(=O)N[C@H](C)c1ccccc1 [Example 37, (3S)-4,4-Dimethyl-1-{[2-(4-methyl-1,2,3-thiadiazol-5-yl)-1,3-thiazol-4-yl]carbonyl}pyrrolidinyl (1S)-1-(oxo{[(1R)-1-phenylethyl]amino}acetyl)pentylcarbamate]
CCCC[C@H](NC(=O)O[C@@H]1CN(C(C)=O)CC1(C)C)C(=O)C(=O)N[C@H](C)c1ccccc1 [Example 10, (3S)-1-Acetyl-4,4-dimethylpyrrolidinyl (1S)-1-(oxo{[(1R)-1-phenylethyl]amino}acetyl)pentylcarbamate]
CCCC[C@H](NC(=O)O[C@@H]1CN(C(=O)OCc2cc(C)on2)CC1(C)C)C(=O)C(=O)N[C@H](C)c1ccccc1 [Example 52, (5-methyl-3-isoxazolyl)methyl (4S)-3,3-dimethyl-4-[({[(1S)-1-(oxo{[(1R)-1-phenylethyl]amino}acetyl)pentyl]amino}carbonyl)oxy]-1-pyrrolidinecarboxylate]
CCCC[C@H](NC(=O)O[C@@H]1CN(C(=O)c2nc[nH]n2)CC1(C)C)C(=O)C(=O)N[C@H](C)c1ccccc1 [Example 34, (3S)-4,4-Dimethyl-1-(1H-1,2,4-triazol-3-ylcarbonyl)pyrrolidinyl (1S)-1-(oxo{[(1R)-1-phenylethyl]amino}acetyl)pentylcarbamate]
CCCCC(NC(=O)O[C@@H]1CN(Cc2ccccc2)CC1(C)C)C(=O)C(=O)N[C@H](C)c1ccccc1 (stereo partly drawn) [Example 8, (3S)-1-Benzyl-4,4-dimethylpyrrolidinyl 1-(oxo{[(1R)-1-phenylethyl]amino}acetyl)pentylcarbamate]
CCCC[C@H](NC(=O)O[C@@H]1CN(C(=O)c2cc(C)on2)CC1(C)C)C(=O)C(=O)N[C@H](C)c1ccccc1 [Example 19, (3S)-4,4-Dimethyl-1-[(5-methyl-3-isoxazolyl)carbonyl]pyrrolidinyl (1S)-1-(oxo {[(1R)-1-phenylethyl]amino}acetyl)pentylcarbamate]
CCCC[C@H](NC(=O)O[C@@H]1CN(C(=O)OCCN2CCCC2=O)CC1(C)C)C(=O)C(=O)N[C@H](C)c1ccccc1 [Example 47, 2-(2-Oxo-1-pyrrolidinyl)ethyl (4S)-3,3-dimethyl-4-[({[(1S)-1-(oxo{[(1R)-1-phenylethyl]amino}acetyl)pentyl]amino}carbonyl)oxy]-1-pyrrolidinecarboxylate]
CCCC[C@H](NC(=O)O[C@@H]1CN(C(=O)Nc2ccc(C#N)cc2)CC1(C)C)C(=O)C(=O)N[C@H](C)c1ccccc1 [Example 69, (3S)-1-[(4-Cyanoanilino)carbonyl]-4,4-dimethylpyrrolidinyl (1S)-1-(oxo{[(1R)-1-phenylethyl]amino}acetyl)pentylcarbamate]
CCCC[C@H](NC(=O)O[C@@H]1CN(C(=O)OCc2ccsc2)CC1(C)C)C(=O)C(=O)N[C@H](C)c1ccccc1 [Example 42, 3-Thienylmethyl (4S)-3,3-dimethyl-4-[({[(1S)-1-(oxo {[(1R)-1-phenylethyl]amino}acetyl)pentyl]amino}carbonyl)oxy]-1-pyrrolidinecarboxylate]

IC50, 100 to 1000 nM:
CCCC[C@H](NC(=O)O[C@@H]1CN(C(=O)OCC2CCCCO2)CC1(C)C)C(=O)C(=O)N[C@H](C)c1ccccc1 (stereo partly drawn) [Example 48, Tetrahydro-2H-pyran-2-ylmethyl (4S)-3,3-dimethyl-4-[({[(1S)-1-(oxo{[(1R)-1-phenylethyl]amino}acetyl)pentyl]amino}carbonyl)oxy]-1-pyrrolidinecarboxylate]

IC50, 1 to 10 nM:
CCCC[C@H](NC(=O)O[C@@H]1CN(C(=O)OCc2cn(-c3ccccc3)nn2)CC1(C)C)C(=O)C(=O)N[C@H](C)c1ccccc1 [Example 46, (1-Phenyl-1H-1,2,3-triazol-4-yl)methyl (4S)-3,3-dimethyl-4-[({[(1S)-1-(oxo{[(1R)-1-phenylethyl]amino}acetyl)pentyl]amino}carbonyl)oxy]-1-pyrrolidinecarboxylate]
CCCC[C@H](NC(=O)O[C@@H]1CN(C(=O)c2ccc3ccccc3c2)CC1(C)C)C(=O)C(=O)N[C@H](C)c1ccccc1 [Example 18, (3S)-4,4-Dimethyl-1-(2-naphthoyl)pyrrolidinyl (1S)-1-(oxo {[(1R)-1-phenylethyl]amino}acetyl)pentylcarbamate]
CCCC[C@H](NC(=O)O[C@@H]1CN(C(=O)c2ccc3[nH]ccc3c2)CC1(C)C)C(=O)C(=O)N[C@H](C)c1ccccc1 [Example 21, (3S)-1-(1H-Indol-5-ylcarbonyl)-4,4-dimethylpyrrolidinyl (1S)-1-(oxo{[(1R)-1-phenylethyl]amino}acetyl)pentylcarbamate]
CCCC[C@H](NC(=O)O[C@@H]1CN(C(=O)c2ccc(-c3ccccc3)cc2)CC1(C)C)C(=O)C(=O)N[C@H](C)c1ccccc1 [Example 20]
CCCC[C@H](NC(=O)OC1C(=O)OC[C@]1(C)CC)C(=O)C(=O)N[C@H](C)c1ccccc1 (stereo partly drawn) [Example 3, (4S)-4-ethyl-4-methyl-2-oxotetrahydro-3-furanyl (1S)-1-(oxo{[(1R)-1-phenylethyl]amino}acetyl)pentylcarbamate]
CCCC[C@H](NC(=O)O[C@@H]1CN(C(=O)Nc2ccc(C(F)(F)F)cc2)CC1(C)C)C(=O)C(=O)N[C@H](C)c1ccccc1 [Example 70, (3S)-4,4-Dimethyl-1-{[4-(trifluoromethyl)anilino]carbonyl}pyrrolidinyl (1S)-1-(oxo {[(1R)-1-phenylethyl]amino}acetyl)pentylcarbamate]
